Measurements: US6624196B2, “Benzene butyric acids and their derivatives as inhibitors of matrix metalloproteinases” (Warner-Lambert Company, priority 1999, dated 2003)

Legend:
[1] = target: T1, MMP-3CD (stromelysin-1 catalytic domain) (Homo sapiens, UniProt P08254); experiment: Thiopeptolide substrate assay, stromelysin-1 catalytic domain; assay type: biochemical; details: for IC50: thiopeptolide substrate, catalytic domain; for inhibition at 10 µM: read-out: % inhibition of the enzyme MMP-3CD
T1 construct: Experiments were carried out with the catalytic domains of the proteinases; made in house; host or cells: Escherichia coli
Method: (§1) Experiments were carried out with the catalytic domains of the proteinases. […] IC50 values were determined using a thiopeptolide substrate, Ac-Pro-Leu-Gly-thioester-Leu-Leu-Gly-OEt (ye Q. -Z., Johnson L. L., Hupe D. J., and Baragi V., “Purification and Characterization of the Human Stromelysin Catalytic Domain Expressed in Escherichia coli,” Biochemistry, 1992;31:11231-11235; ye Q. -Z., Johnson L. L., yu A. E., and Hupe D., “Reconstructed 19 kDa catalytic domain of gelatinase A is an active proteinase,” Biochemistry, 1995;34:4702-4708.) MMP-13CD was expressed from a synthetic gene and purified from Escherichia coli cell culture according to a previously described method (ye Q. -Z., Johnson L. L., and Baragi V., “Gene synthesis and expression in E. coli for PUMP, a human matrix metalloproteinase,” Biochemical and Biophysical Research Communications, 1992;186:143-149.)

[2] = target: T2, MMP-13CD (collagenase-3 catalytic domain) (Homo sapiens, UniProt P45452); experiment: Thiopeptolide substrate assay, collagenase-3 catalytic domain; assay type: biochemical; details: for IC50: thiopeptolide substrate, catalytic domain; for inhibition at 10 µM: read-out: % inhibition of the enzyme MMP-13CD
T2 construct: Experiments were carried out with the catalytic domains of the proteinases; made in house; host or cells: Escherichia coli
Method: as §1

[3] = target: T3, MMP-2CD (gelatinase A catalytic domain) (Homo sapiens, UniProt P08253, DEL220-393); experiment: Thiopeptolide substrate assay, gelatinase A catalytic domain; assay type: biochemical; details: for IC50: thiopeptolide substrate, catalytic domain; for inhibition at 10 µM: read-out: % inhibition of the enzyme MMP-2CD
T3 construct: Experiments were carried out with the catalytic domains of the proteinases
Method: as §1

[4] = 10 μM concentration of inhibitor (footnote a, Examples 8 through 25)

T3 sequence (P08253 with tags, fused parts or gaps DEL220-393): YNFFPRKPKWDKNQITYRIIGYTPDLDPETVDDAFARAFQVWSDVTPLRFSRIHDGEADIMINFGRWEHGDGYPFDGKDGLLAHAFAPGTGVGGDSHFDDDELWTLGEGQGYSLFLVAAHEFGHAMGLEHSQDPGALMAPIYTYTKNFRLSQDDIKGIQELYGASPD
T1 sequence (P08254 100-272 limits assumed): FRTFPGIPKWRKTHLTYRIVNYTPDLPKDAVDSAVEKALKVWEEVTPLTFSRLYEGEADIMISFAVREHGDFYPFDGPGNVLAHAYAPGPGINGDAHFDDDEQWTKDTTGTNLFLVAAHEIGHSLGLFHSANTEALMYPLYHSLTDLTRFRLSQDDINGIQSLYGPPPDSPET

Compound | IC50 [1] | IC50 [3] | inhibition at 10 µM [1, 4] | inhibition at 10 µM [2, 4] | inhibition at 10 µM [3, 4] | also measured
4-Hydroxyimino-4-[(4-methyl-benzoyl)amino-phenyl]-butyric acid [Example 2] | 1.1 µM | 0.41 µM |  |  |  | IC50 [2]: 3.8 µM
4-[4-(Benzoylamino)-phenyl]-4-oxo-butyric acid [Example 28] | 0.55 µM | 0.11 µM |  |  |  | IC50 [2]: 17 µM
4-[4-(Carboxy-acetylamino)-phenyl]-4-oxo-butyric acid [Example 36] | 17 µM | 41 µM |  |  |  | 
Cc1ccc(C(=O)Nc2ccc(C(=O)CCC(=O)O)cc2)cc1 [Example 1, 4-[4-(4-Methyl-benzoylamino)-phenyl]-4-oxo-butyric acid] | 1.55 µM | 0.22 µM |  |  |  | IC50 [2]: 5.8 µM
CCCCC(=O)Nc1ccc(C(=O)CCC(=O)O)cc1 [Example 3, 4—oxo-4-(4-pentanoylamino-phenyl)-butyric acid] | 8.15 µM | 9.5 µM |  |  |  | melting point: 153 to 155 °C
O=C(O)CCC(=O)c1ccc(NC(=O)c2cccc(F)c2)cc1 [Example 4, 4-[4-(3-Fluoro-benzoylamino)-phenyl]-4-oxo-butyric acid] | 6.2 µM | 1.9 µM |  |  |  | melting point: 239 to 241 °C
O=C(O)CCC(=O)c1ccc(NC(=O)c2ccccc2F)cc1 [Example 5, 4-[4-(2-Fluoro-benzoylamino)-phenyl]-4-oxo-butyric acid] | 9.8 µM | 1.9 µM |  |  |  | melting point: 191 to 193 °C
O=C(O)CCC(=O)c1ccc(NC(=O)c2ccc(F)cc2)cc1 [Example 6, 4-[4-(4-Fluoro-benzoylamino)-phenyl]-4-oxo-butyric acid] | 2.8 µM | 1.7 µM |  |  |  | IC50 [2]: 85 µM; melting point: 253 to 255 °C
O=C(O)CCC(=O)c1ccc(NC(=O)C2CCCCC2)cc1 [Example 7, 4-[4-(Cyclohexane-carbonyllamino)-phenyl]-4-oxo-butyric acid] | 20 µM |  |  |  |  | melting point: 195 to 198 °C
O=C(O)CCC(=O)c1ccc(NC(=O)c2cccnc2)cc1 [Example 8, 4-[4-(Pyridin-3-yl-carbonylamino)-phenyl]-4-oxo-butyric acid] |  |  | 3% | 0% | 15% | 
CCCCCCCCC(=O)Nc1ccc(C(=O)CCC(=O)O)cc1 [Example 9, 4-[4-(Nonanoylamino)-phenyl]-4-oxo-butyric acid] |  |  | 75% | 3% | 85% | 
CCCCCCCC(=O)Nc1ccc(C(=O)CCC(=O)O)cc1 [Example 10, 4-[4-(Octanoylamino)-phenyl]-4-oxo-butyric acid] |  |  | 66% | 8% | 79% | 
CCC(=O)Nc1ccc(C(=O)CCC(=O)O)cc1 [Example 11, 4—oxo-4-[4-(propionylamino)-phenyl]-butyric acid] |  |  | 21% | 9% | 46% | 
COc1cccc(C(=O)Nc2ccc(C(=O)CCC(=O)O)cc2)c1 [Example 12, 4-[4-(3-Methoxy-benzoylamino)-phenyl]-4-oxo-butyric acid] |  |  | 31% | 11% | 75% | 
O=C(O)CCC(=O)c1ccc(NC(=O)c2ccc(Cl)cc2Cl)cc1 [Example 13, 4-[4-(2,4-Dichloro-benzoylamino)-phenyl]-4-oxo-butyric acid] |  |  | 11% | 0% | 26% | 
O=C(O)CCC(=O)c1ccc(NC(=O)CCCc2ccc(Br)cc2)cc1 [Example 14, 4-{4-[4-(4-Bromo-phenyl)-butyrylamino]-phenyl}-4-oxo-butyric acid] |  |  | 48% | 7% | 26% | 
CCCCCCC(=O)Nc1ccc(C(=O)CCC(=O)O)cc1 [Example 15, 4-[4-(Heptanoylamino)-phenyl]-4-oxo-butyric acid] |  |  | 70% | 11% | 83% | 
CCc1ccc(C(=O)Nc2ccc(C(=O)CCC(=O)O)cc2)cc1 [Example 16, 4-[4-(4-Ethyl-benzoylamino)-phenyl]-4-oxo-butyric acid] |  |  | 85% | 60% | 97% | 

Compound | IC50 [1] | IC50 [3] | inhibition at 10 µM [1, 4] | inhibition at 10 µM [2, 4] | inhibition at 10 µM [3, 4] | also measured
CCCCOc1ccc(C(=O)Nc2ccc(C(=O)CCC(=O)O)cc2)cc1 [Example 17, 4-[4-(4-Butoxy-benzoylamino)-phenyl]-4-oxo-butyric acid] |  |  | 78% | 65% | 97% | 
O=C(O)CCC(=O)c1ccc(NC(=O)c2ccc(Cl)c([N+](=O)[O-])c2)cc1 [Example 18, 4-[4-(4—Chloro-3-nitro-benzoylamino)-phenyl]-4-oxo-butyric acid] |  |  | 38% | 16% | 82% | 
O=C(O)CCC(=O)c1ccc(NC(=O)C=Cc2ccccc2)cc1 [Example 19, 4-[4-(Cinnamoylamino)-phenyl]-4-oxo-butyric acid] |  |  | 72% | 9% | 86% | 
O=C(O)CCC(=O)c1ccc(NC(=O)c2ccc(Br)cc2)cc1 [Example 20, 4-[4-(4-Bromo-benzoylamino)-phenyl]-4-oxo-butyric acid] |  |  | 81% | 30% | 93% | 
O=C(O)CCC(=O)c1ccc(NC(=O)c2cccc([N+](=O)[O-])c2)cc1 [Example 21, 4-[4-(3-Nitro-benzoylamino)-phenyl]-4-oxo-butyric acid] |  |  | 23% | 8% | 78% | 
CCCC(=O)Nc1ccc(C(=O)CCC(=O)O)cc1 [Example 22, 4-[4-(Butyrylamino)-phenyl]-4-oxo-butyric acid] |  |  | 35% | 0% | 62% | 
CCCCCCCCCC(=O)Nc1ccc(C(=O)CCC(=O)O)cc1 [Example 23] |  |  |  |  |  | % inhibition of the enzyme MMP-3CD [1, 4]: 39%; % inhibition of the enzyme MMP-13CD [2, 4]: 0%; % inhibition of the enzyme MMP-2CD [3, 4]: 54%
COc1cc(OC)cc(C(=O)Nc2ccc(C(=O)CCC(=O)O)cc2)c1 [Example 24, 4-[4-(3,5-Dimethoxy-benzoylamino)-phenyl]-4-oxo-butyric acid] |  |  | 4% | 0% | 15% | 
COc1ccccc1C(=O)Nc1ccc(C(=O)CCC(=O)O)cc1 [Example 25, 4-[4-(2-Methoxy-benzoylamino)-phenyl]-4-oxo-butyric acid] |  |  | 13% | 0% | 18% | 
O=C(O)CCC(=O)c1ccc(NC(=O)c2ccc(Cl)cc2)cc1 [Example 26, 4-[4-(4—Chloro-benzoylamino)-phenl]-4-oxo-butyric acid] | 0.82 µM | 0.12 µM |  |  |  | IC50 [2]: 24 µM
COc1ccc(C(=O)Nc2ccc(C(=O)CCC(=O)O)cc2)cc1 [Example 27, 4-[4-(4-Methoxy-benzoylamino)-phenyl]-4-oxo-butyric acid] | 0.34 µM | 0.07 µM |  |  |  | IC50 [2]: 9.8 µM
O=C(O)CCC(=O)c1ccc(NC(=O)c2ccc([N+](=O)[O-])cc2)cc1 [Example 29, 4-[4-(4-Nitro-benzoylamino)-phenyl]-4-oxo-butyric acid] | 2.4 µM | 0.46 µM |  |  |  | IC50 [2]: 40 µM
O=C(O)CCC(=O)c1ccc(NC(=O)c2ccc(F)cc2F)cc1 [Example 30, 4-[4-(2,4-Difluoro-benzoylamino)-phenyl]-4-oxo-butyric acid] | 5 µM | 0.93 µM |  |  |  | 
O=C(O)CCC(=O)c1ccc(NC(=O)c2cccs2)cc1 [Example 31, 4—oxo-4-[4-(thiophen-2-yl-carbonylamino)-phenyl]-butyric acid] | 1.7 µM | 0.13 µM |  |  |  | IC50 [2]: 19 µM
O=C(O)CCC(=O)c1ccc(NC(=O)c2ccco2)cc1 [Example 32, 4-[4-(2-Furoylamino)-phenyl]-4-oxo-butyric acid] | 19 µM | 0.91 µM |  |  |  | 
O=C(O)CCC(=O)c1ccc(NC(=O)Cc2ccccc2)cc1 [Example 33, 4—oxo-4-[4-(phenyl-acetylamino)-phenyl]-butyric acid] | 24 µM | 52 µM |  |  |  | 
O=C(O)CCC(=O)c1ccc(NC(=O)CCc2ccccc2)cc1 [Example 34, 4—oxo-4-[4-(3-phenyl-propionylamino)-phenyl]-butyric acid] | 6.6 µM |  |  |  |  | 
O=C(O)CCC(=O)Nc1ccc(C(=O)CCC(=O)O)cc1 [Example 35, 4-[4-(3—Carboxy-propionylamino)-phenyl]-4-oxo-butyric acid] | 13 µM | 38 µM |  |  |  | 
